Measurements from ChEMBL document CHEMBL3885881, “DrugMatrix”.

Species: Rattus norvegicus
Experiment: DrugMatrix - Regimen: Daily Repeat
Assay type: toxicity, organism-based, Sprague-Dawley
Set-up: regimen Daily Repeat, gender Male, age 6-8 weeks
Settings: in vivo, po, route oral GAVAGE, vehicle 100 % WATER; for ABSOLUTE BASOPHIL / ABSOLUTE EOSINOPHIL / ABSOLUTE LYMPHOCYTE / ABSOLUTE MONOCYTE / ABSOLUTE SEGMENTED NEUTROPHIL / BASOPHIL / EOSINOPHIL / ERYTHROCYTE COUNT / HEMATOCRIT / HEMOGLOBIN / LEUKOCYTE COUNT / LYMPHOCYTE / MEAN CORPUSCULAR HEMOGLOBIN / MEAN CORPUSCULAR HEMOGLOBIN CONCENTRATION / MEAN CORPUSCULAR VOLUME / MONOCYTE / NEUTROPHIL / NUCLEATED RED BLOOD CELLS / PLATELET COUNT: tissue Blood; for ALANINE AMINOTRANSFERASE / ALBUMIN / ALKALINE PHOSPHATASE / ASPARTATE AMINOTRANSFERASE / BLOOD UREA NITROGEN / CARBON DIOXIDE / CHLORIDE / CHOLESTEROL / CREATINE PHOSPHOKINASE / CREATININE / GLUCOSE / LACTATE DEHYDROGENASE / LIPASE / PHOSPHORUS / POTASSIUM / SODIUM / TOTAL BILIRUBIN / TOTAL PROTEIN / URIC ACID: tissue Plasma
[1] = 0 mg/kg, 72 h, dose level Control, time 3 day
[2] = 0 mg/kg, 120 h, dose level Control, time 5 day
[3] = 120 mg/kg, 72 h, dose level Low, time 3 day

**Q.** Which results are given for `CCN(CC)CCNC(=O)c1cc(S(C)(=O)=O)ccc1OC` [TIAPRIDE]?
**A.** ABSOLUTE BASOPHIL [1]: 0 CELLS/uL; ABSOLUTE EOSINOPHIL [1]: 151.33 CELLS/uL; ABSOLUTE LYMPHOCYTE [1]: 10599.5 CELLS/uL; ABSOLUTE MONOCYTE [1]: 109.5 CELLS/uL; ABSOLUTE SEGMENTED NEUTROPHIL [1]: 1139.67 CELLS/uL; BASOPHIL [1]: 0%; EOSINOPHIL [1]: 0.83%; ERYTHROCYTE COUNT [1]: 5.54 x10E6/uL; HEMATOCRIT [1]: 35.35%; HEMOGLOBIN [1]: 13.22 G/DL; LEUKOCYTE COUNT [1]: 12 x10E3/uL; LYMPHOCYTE [1]: 89%; MEAN CORPUSCULAR HEMOGLOBIN [1]: 23.88 pg; MEAN CORPUSCULAR HEMOGLOBIN CONCENTRATION [1]: 37.4 G/DL; MEAN CORPUSCULAR VOLUME [1]: 63.85 fL; MONOCYTE [1]: 1%; NEUTROPHIL [1]: 9.17%; NUCLEATED RED BLOOD CELLS [1]: 0 /100WBC; PLATELET COUNT [1]: 1333.33 x10E3/uL; ALANINE AMINOTRANSFERASE [1]: 53.17 u/L; ALBUMIN [1]: 4.32 G/DL; ALKALINE PHOSPHATASE [1]: 404.33 u/L; ASPARTATE AMINOTRANSFERASE [1]: 83.17 u/L; BLOOD UREA NITROGEN [1]: 15.67 mg/dL; CARBON DIOXIDE [1]: 27.33 mmol/L; CHLORIDE [1]: 101.83 MEQ/L; CHOLESTEROL [1]: 68.67 mg/dL; CREATINE PHOSPHOKINASE [1]: 276.17 u/L; CREATININE [1]: 0.18 mg/dL; GLUCOSE [1]: 163.5 mg/dL; LACTATE DEHYDROGENASE [1]: 144.67 u/L; LIPASE [1]: 8.83 u/L; PHOSPHORUS [1]: 11.72 mg/dL; POTASSIUM [1]: 5.99 MEQ/L; SODIUM [1]: 143.57 MEQ/L; TOTAL BILIRUBIN [1]: 0.2 mg/dL; TOTAL PROTEIN [1]: 6.1 G/DL; URIC ACID [1]: 1.38 mg/dL; ABSOLUTE BASOPHIL [2]: 0 CELLS/uL; ABSOLUTE EOSINOPHIL [2]: 248.67 CELLS/uL; ABSOLUTE LYMPHOCYTE [2]: 12977.83 CELLS/uL; ABSOLUTE MONOCYTE [2]: 19.67 CELLS/uL; ABSOLUTE SEGMENTED NEUTROPHIL [2]: 1137.17 CELLS/uL; BASOPHIL [2]: 0%; EOSINOPHIL [2]: 1.67%; ERYTHROCYTE COUNT [2]: 5.82 x10E6/uL; HEMATOCRIT [2]: 36.35%; HEMOGLOBIN [2]: 13.58 G/DL; LEUKOCYTE COUNT [2]: 14.38 x10E3/uL; LYMPHOCYTE [2]: 90.5%; MEAN CORPUSCULAR HEMOGLOBIN [2]: 23.32 pg; MEAN CORPUSCULAR HEMOGLOBIN CONCENTRATION [2]: 37.42 G/DL; MEAN CORPUSCULAR VOLUME [2]: 62.42 fL; MONOCYTE [2]: 0.17%; NEUTROPHIL [2]: 7.67%; NUCLEATED RED BLOOD CELLS [2]: 0 /100WBC; PLATELET COUNT [2]: 1337.67 x10E3/uL; ALANINE AMINOTRANSFERASE [2]: 48.5 u/L; ALBUMIN [2]: 4.32 G/DL; ALKALINE PHOSPHATASE [2]: 354.33 u/L; ASPARTATE AMINOTRANSFERASE [2]: 80 u/L; BLOOD UREA NITROGEN [2]: 16 mg/dL; CARBON DIOXIDE [2]: 27.33 mmol/L; CHLORIDE [2]: 100.33 MEQ/L; CHOLESTEROL [2]: 68 mg/dL; CREATINE PHOSPHOKINASE [2]: 325.17 u/L; CREATININE [2]: 0.23 mg/dL; GLUCOSE [2]: 172 mg/dL; LACTATE DEHYDROGENASE [2]: 254.83 u/L; LIPASE [2]: 8.33 u/L; PHOSPHORUS [2]: 12.17 mg/dL; POTASSIUM [2]: 6.28 MEQ/L; SODIUM [2]: 143.57 MEQ/L; TOTAL BILIRUBIN [2]: 0.18 mg/dL; TOTAL PROTEIN [2]: 6.12 G/DL; URIC ACID [2]: 1.78 mg/dL; ABSOLUTE BASOPHIL [3]: 0 CELLS/uL; ABSOLUTE EOSINOPHIL [3]: 161.33 CELLS/uL; ABSOLUTE LYMPHOCYTE [3]: 8742.33 CELLS/uL; ABSOLUTE MONOCYTE [3]: 34.33 CELLS/uL; ABSOLUTE SEGMENTED NEUTROPHIL [3]: 962 CELLS/uL; BASOPHIL [3]: 0%; EOSINOPHIL [3]: 1.33%; ERYTHROCYTE COUNT [3]: 5.57 x10E6/uL; HEMATOCRIT [3]: 35.07%; HEMOGLOBIN [3]: 13.23 G/DL; LEUKOCYTE COUNT [3]: 9.9 x10E3/uL; LYMPHOCYTE [3]: 88.33%; MEAN CORPUSCULAR HEMOGLOBIN [3]: 23.77 pg; MEAN CORPUSCULAR HEMOGLOBIN CONCENTRATION [3]: 37.7 G/DL; MEAN CORPUSCULAR VOLUME [3]: 63.03 fL; MONOCYTE [3]: 0.33%; NEUTROPHIL [3]: 10%; NUCLEATED RED BLOOD CELLS [3]: 0 /100WBC; PLATELET COUNT [3]: 1263 x10E3/uL; ALANINE AMINOTRANSFERASE [3]: 47.67 u/L; ALBUMIN [3]: 4.13 G/DL; ALKALINE PHOSPHATASE [3]: 345 u/L; ASPARTATE AMINOTRANSFERASE [3]: 82.33 u/L; BLOOD UREA NITROGEN [3]: 15.33 mg/dL; CARBON DIOXIDE [3]: 27.33 mmol/L; CHLORIDE [3]: 103 MEQ/L; CHOLESTEROL [3]: 60.67 mg/dL; CREATINE PHOSPHOKINASE [3]: 172.67 u/L; CREATININE [3]: 0.19 mg/dL; GLUCOSE [3]: 170.33 mg/dL; LACTATE DEHYDROGENASE [3]: 114 u/L; LIPASE [3]: 8 u/L; PHOSPHORUS [3]: 12.83 mg/dL; POTASSIUM [3]: 5.99 MEQ/L; SODIUM [3]: 145.83 MEQ/L; TOTAL BILIRUBIN [3]: 0.2 mg/dL; TOTAL PROTEIN [3]: 6.17 G/DL; URIC ACID [3]: 1.33 mg/dL
